Measurements reported in ChEMBL document CHEMBL1201862, “PubChem BioAssay data set” (2004).
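48-hour exposure; five concentrations; linearly interpolated endpoints. Abbreviation: GI50, concentration required for 50% inhibition of growth.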 Activity calls are given as the source filed them. Rule as the data show it: active = GI50 up to about 1.1 µM and inactive = higher.

How the values were obtained:
Assay in all cases: growth of human tumour cells (NCI), 48 h
786-0 = system: 786-0
A498 = system: A498
A549 = system: A549
ACHN = system: ACHN
CAKI-1 = system: CAKI-1
CCRF-CEM = system: CCRF-CEM
COLO 205 = system: COLO 205
DLD-1 = system: DLD-1
DMS-114 = system: DMS-114
DMS-273 = system: DMS-273
HCT-116 = system: HCT-116
HCT-15 = system: HCT-15
HL-60 = system: HL-60
HOP-18 = system: HOP-18
HOP-62 = system: HOP-62
HOP-92 = system: HOP-92
HT-29 = system: HT-29
IGROV-1 = system: IGROV-1
K562 = system: K562
KM-20L2 = system: KM-20L2
KM12 = system: KM12
LOX IMVI = system: LOX IMVI
M14 = system: M14
M19-MEL = system: M19-MEL
MOLT-4 = system: MOLT-4
Malme-3M = system: Malme-3M
NCI-H226 = system: NCI-H226
NCI-H23 = system: NCI-H23
NCI-H460 = system: NCI-H460
NCI-H522 = system: NCI-H522
OVCAR-3 = system: OVCAR-3
OVCAR-4 = system: OVCAR-4
OVCAR-5 = system: OVCAR-5
OVCAR-8 = system: OVCAR-8
RPMI-8226 = system: RPMI-8226
SF-268 = system: SF-268
SF-295 = system: SF-295
SF-539 = system: SF-539
SK-MEL-28 = system: SK-MEL-28
SK-MEL-2 = system: SK-MEL-2
SK-MEL-5 = system: SK-MEL-5
SK-OV-3 = system: SK-OV-3
SN12C = system: SN12C
SNB-19 = system: SNB-19
SNB-75 = system: SNB-75
SNB-78 = system: SNB-78
SR = system: SR
SW-620 = system: SW-620
TK-10 = system: TK-10
U-251 = system: U-251
UACC-257 = system: UACC-257
UACC-62 = system: UACC-62
UO-31 = system: UO-31
XF498 = system: XF498
RXF 393 = system: RXF 393
EKVX = system: EKVX
HCC 2998 = system: HCC 2998
LXFL 529 = system: LXFL 529

Compound: Nc1nc(SCCC/C=C/I)nc2c1ncn2C1OC(CO)C(O)C1O (stereo not drawn)
- GI50 (786-0): > 202 µM (inactive)
- GI50 (A498): > 202 µM (inactive)
- GI50 (A549): > 202 µM (inactive)
- GI50 (ACHN): > 202 µM (inactive)
- GI50 (CAKI-1): > 202 µM (inactive)
- GI50 (CCRF-CEM): 98.4 µM (inactive)
- GI50 (COLO 205): > 202 µM (inactive)
- GI50 (DLD-1): > 202 µM (inactive)
- GI50 (DMS-114): > 202 µM (inactive)
- GI50 (DMS-273): > 202 µM (inactive)
- GI50 (HCT-116): > 202 µM (inactive)
- GI50 (HCT-15): > 202 µM
- GI50 (HL-60): > 202 µM (inactive)
- GI50 (HOP-18): > 202 µM (inactive)
- GI50 (HOP-62): > 202 µM (inactive)
- GI50 (HOP-92): > 202 µM (inactive)
- GI50 (HT-29): > 202 µM (inactive)
- GI50 (IGROV-1): > 202 µM (inactive)
- GI50 (K562): > 202 µM (inactive)
- GI50 (KM-20L2): > 202 µM (inactive)
- GI50 (KM12): > 202 µM (inactive)
- GI50 (LOX IMVI): > 202 µM (inactive)
- GI50 (M14): > 202 µM (inactive)
- GI50 (M19-MEL): > 202 µM (inactive)
- GI50 (MOLT-4): 99.5 µM (inactive)
- GI50 (Malme-3M): > 202 µM (inactive)
- GI50 (NCI-H226): > 202 µM (inactive)
- GI50 (NCI-H23): > 202 µM (inactive)
- GI50 (NCI-H460): > 202 µM (inactive)
- GI50 (NCI-H522): > 202 µM (inactive)
- GI50 (OVCAR-3): > 202 µM (inactive)
- GI50 (OVCAR-4): > 202 µM (inactive)
- GI50 (OVCAR-5): > 202 µM (inactive)
- GI50 (OVCAR-8): > 202 µM (inactive)
- GI50 (RPMI-8226): > 202 µM (inactive)
- GI50 (SF-268): > 202 µM (inactive)
- GI50 (SF-295): > 202 µM (inactive)
- GI50 (SF-539): > 202 µM (inactive)
- GI50 (SK-MEL-28): > 202 µM (inactive)
- GI50 (SK-MEL-2): > 202 µM (inactive)
- GI50 (SK-MEL-5): > 202 µM (inactive)
- GI50 (SK-OV-3): > 202 µM (inactive)
- GI50 (SN12C): > 202 µM (inactive)
- GI50 (SNB-19): > 202 µM (inactive)
- GI50 (SNB-75): 78.9 µM (inactive)
- GI50 (SNB-78): > 202 µM (inactive)
- GI50 (SR): > 202 µM (inactive)
- GI50 (SW-620): > 202 µM (inactive)
- GI50 (TK-10): > 202 µM (inactive)
- GI50 (U-251): > 202 µM (inactive)
- GI50 (UACC-257): > 202 µM (inactive)
- GI50 (UACC-62): > 202 µM (inactive)
- GI50 (UO-31): > 202 µM (inactive)
- GI50 (XF498): > 202 µM (inactive)

Compound: COc1ccc(/C=N/NC(=O)NCCCN(C)C)cc1
- GI50 (A498): > 100 µM (inactive)
- GI50 (A549): > 100 µM (inactive)
- GI50 (ACHN): > 100 µM (inactive)
- GI50 (CCRF-CEM): > 100 µM (inactive)
- GI50 (DLD-1): > 100 µM (inactive)
- GI50 (DMS-114): > 100 µM (inactive)
- GI50 (DMS-273): > 100 µM (inactive)
- GI50 (HCT-116): > 100 µM (inactive)
- GI50 (HCT-15): > 100 µM
- GI50 (HL-60): > 100 µM (inactive)
- GI50 (HOP-18): > 100 µM (inactive)
- GI50 (HT-29): > 100 µM (inactive)
- GI50 (IGROV-1): > 100 µM (inactive)
- GI50 (K562): > 100 µM (inactive)
- GI50 (KM12): > 100 µM (inactive)
- GI50 (LOX IMVI): 85.9 µM (inactive)
- GI50 (MOLT-4): > 100 µM (inactive)
- GI50 (Malme-3M): > 100 µM (inactive)
- GI50 (NCI-H226): > 100 µM (inactive)
- GI50 (NCI-H23): > 100 µM (inactive)
- GI50 (NCI-H460): > 100 µM (inactive)
- GI50 (NCI-H522): > 100 µM (inactive)
- GI50 (OVCAR-3): > 100 µM (inactive)
- GI50 (OVCAR-8): > 100 µM (inactive)
- GI50 (RXF 393): > 100 µM (inactive)
- GI50 (SF-268): > 100 µM (inactive)
- GI50 (SF-295): > 100 µM (inactive)
- GI50 (SF-539): > 100 µM (inactive)
- GI50 (SK-MEL-28): > 100 µM (inactive)
- GI50 (SK-MEL-2): > 100 µM (inactive)
- GI50 (SK-MEL-5): > 100 µM (inactive)
- GI50 (SK-OV-3): > 100 µM (inactive)
- GI50 (SN12C): > 100 µM (inactive)
- GI50 (SNB-19): > 100 µM (inactive)
- GI50 (SNB-78): > 100 µM (inactive)
- GI50 (SW-620): > 100 µM (inactive)
- GI50 (TK-10): > 100 µM (inactive)
- GI50 (U-251): > 100 µM (inactive)
- GI50 (UACC-257): > 100 µM (inactive)
- GI50 (UACC-62): > 100 µM (inactive)
- GI50 (UO-31): > 100 µM (inactive)
- GI50 (XF498): > 100 µM (inactive)

Compound: C[N+](C)(Cc1ccc(NC(=O)CCCC(=O)ON2C(=O)CCC2=O)cc1)c1ccccc1
- GI50 (786-0): < 0.01 µM (active)
- GI50 (A498): < 0.01 µM (active)
- GI50 (A549): < 0.01 µM (active)
- GI50 (ACHN): < 0.01 µM (active)
- GI50 (CAKI-1): < 0.01 µM (active)
- GI50 (CCRF-CEM): < 0.01 µM (active)
- GI50 (COLO 205): < 0.01 µM (active)
- GI50 (DLD-1): < 0.01 µM (active)
- GI50 (DMS-114): > 1 µM (active)
- GI50 (DMS-273): < 0.01 µM (active)
- GI50 (EKVX): < 0.01 µM (active)
- GI50 (HCC 2998): < 0.01 µM (active)
- GI50 (HCT-116): < 0.01 µM (active)
- GI50 (HCT-15): > 1 µM
- GI50 (HL-60): < 0.01 µM (active)
- GI50 (HOP-18): < 0.01 µM (active)
- GI50 (HOP-62): < 0.01 µM (active)
- GI50 (HOP-92): < 0.01 µM (active)
- GI50 (HT-29): < 0.01 µM (active)
- GI50 (IGROV-1): < 0.01 µM (active)
- GI50 (K562): < 0.01 µM (active)
- GI50 (KM-20L2): < 0.01 µM (active)
- GI50 (KM12): < 0.01 µM (active)
- GI50 (LOX IMVI): < 0.01 µM (active)
- GI50 (LXFL 529): < 0.01 µM (active)
- GI50 (M14): < 0.01 µM (active)
- GI50 (M19-MEL): < 0.01 µM (active)
- GI50 (MOLT-4): < 0.01 µM (active)
- GI50 (Malme-3M): < 0.01 µM (active)
- GI50 (NCI-H226): < 0.01 µM (active)
- GI50 (NCI-H23): < 0.01 µM (active)
- GI50 (NCI-H460): > 1 µM (active)
- GI50 (NCI-H522): < 0.01 µM (active)
- GI50 (OVCAR-3): < 0.01 µM (active)
- GI50 (OVCAR-4): < 0.01 µM (active)
- GI50 (OVCAR-5): < 0.01 µM (active)
- GI50 (OVCAR-8): < 0.01 µM (active)
- GI50 (RPMI-8226): < 0.01 µM (active)
- GI50 (RXF 393): > 1 µM (active)
- GI50 (SF-268): < 0.01 µM (active)
- GI50 (SF-295): < 0.01 µM (active)
- GI50 (SF-539): < 0.01 µM (active)
- GI50 (SK-MEL-28): < 0.01 µM (active)
- GI50 (SK-MEL-2): 0.0234 µM (active)
- GI50 (SK-MEL-5): < 0.01 µM (active)
- GI50 (SK-OV-3): < 0.01 µM (active)
- GI50 (SN12C): < 0.01 µM (active)
- GI50 (SNB-19): < 0.01 µM (active)
- GI50 (SNB-75): < 0.01 µM (active)
- GI50 (SR): < 0.01 µM (active)
- GI50 (SW-620): < 0.01 µM (active)
- GI50 (TK-10): < 0.01 µM (active)
- GI50 (U-251): < 0.01 µM (active)
- GI50 (UACC-257): < 0.01 µM (active)
- GI50 (UACC-62): < 0.01 µM (active)
- GI50 (UO-31): < 0.01 µM (active)
- GI50 (XF498): > 1 µM (active)
